Assays:
[1] = Cell viability: resazurin assay; assay type: cell-based, human; settings: human, HEp2 cells
Outline: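 HEp2 cells in 5% FBS DMEM exposed to compounds (0.5% DMSO final) for 5 days at 37 °C/5% CO2, then resazurin added for 6 h; fluorescence read at 545/590 nm. Percent viability loss calculated versus 0.5% DMSO vehicle, with increases shown as negative values; CC50 taken from concentration-response curves where appropriate.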

[2] = tested on: RSV A2 F-protein expression in BEAS2B bronchial epithelial cells; assay: Assessment of RSV F protein expression in BEAS2B bronchial epithelial cells; assay type: cell-based; settings: human respiratory syncytial virus, BEAS-2B, 72 h, read-out: RSV A2 F-protein IC50 (nM)
Protocol: Assessment of RSV F Protein Expression in BEAS2B Bronchial Epithelial Cells
An early event which follows the infection of epithelial cells by RSV is the expression of RSV F-protein on the cells' surface. BEAS2B cells (SV40-immortalised human bronchial epithelial cell line) were grown in 96 well plates. Once more than 70% confluent, cells were infected with RSV A2 (#0709161v, NCPV, Public Health England, Wiltshire) at an MOI of 0.01 in clear RPMI-1640 medium (Life technologies, Paisley, UK) with 2% FBS (Life technologies, Paisley, UK), and incubated for 3 days (37° C./5% CO2).
Supernatant was aspirated and the cells were fixed with 4% formaldehyde (100 μL in PBS solution) for 20 min, washed 3 times with washing buffer (200 μL; PBS containing 0.05% Tween-20) and incubated with blocking solution (100 μL; 5% Marvel milk in PBS) for 1 hr. Cells were then washed with washing buffer (200 μL) and incubated for 1 hr at 37° C. with anti-RSV (2F7; mouse monoclonal, lot 160290, Cat. No. ab43812, Abcam plc, Cambridge, UK) F-fusion protein antibody (50 μL; prepared at a 1:1000 dilution in 5% milk/PBS-tween). After washing, cells were incubated with an HRP-conjugated anti-mouse IgG antibody (50 μL prepared at a 1:2000 dilution in 5% milk in PBS; lot 00095437, Cat.No. P0447, Dako UK Ltd, Cambridgeshire, UK) for 1 hr. Cells were washed twice with washing buffer and once with PBS. TMB substrate (100 μL; substrate reagent pack lot 320436, Cat. No. DY999, R&D Systems, Inc. Abingdon, UK) was then added and the reaction was stopped by the addition of aq sulfuric acid (50 μL; 2N). The resultant signal was determined colourimetrically (OD: 450 nm with a reference wavelength of 655 nm) in a microplate reader (Multiskan FC®, ThermoFisher Scientific). Cells were then washed and 1% crystal violet solution (50 μL; lot SLB4576, Cat. No. HT90132-1L, Sigma-Aldrich) was applied for 30 min. After washing with PBS (200 μL) 3 times, 1% SDS (100 μL) was added to each well, and plates were shaken lightly for 1 hr prior to reading the absorbance at 595 nm. The measured OD450-655 readings were corrected for cell number by dividing the OD450-655 by the OD595 readings. The percentage inhibition for each well was calculated and the IC50 value derived from the concentration-response curve generated for each test compound.

RSV A2 strain = assay: Assessment of RSV induced CPE in HEp2 cells (RSV A2 strain); assay type: cell-based; settings: human respiratory syncytial virus, HEp2 cells; for IC50: HEp-2, 120 h, 1 MOI, 5 days, read-out: RSV A2 CPE IC50; for inhibition at 0.01 µg/mL: Inhibition (%) at 0.01 μg/mL
Outline: (§1)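 HEp2 cells were infected at MOI 1 with RSV A2 or RSV B Washington, with compound added at the same time (0.5% DMSO final). Incubation was 5 days for A2 and 6 days for B, then viability was read by resazurin fluorescence (545/590 nm) after 6 h. IC50, IC75 and IC90 came from concentration-response curves.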

RSV B Washington strain = assay: Assessment of RSV induced CPE in HEp2 cells (RSV B Washington strain); assay type: cell-based; settings: human respiratory syncytial virus, HEp2 cells; for IC50: HEp-2, 144 h, 1 MOI, 6 days, read-out: RSV B CPE IC50; for inhibition at 1 µg/mL / inhibition at 0.1 µg/mL: HEp-2; for inhibition at 1 µg/mL: Inhibition (%) at 1 μg/mL, read-out: RSV B CPE % Inhibition; for inhibition at 0.1 µg/mL: Inhibition (%) at 0.1 μg/mL
Outline: as §1

Structure (SMILES) | CC50 at 5 days [1] | IC50 [2] | IC50 (RSV A2 strain) | inhibition at 0.1 µg/mL (RSV A2 strain; HEp-2, Inhibition (%) at 0.1 μg/mL, read-out: RSV A2 CPE % Inhibition) | IC50 (RSV B Washington strain) | inhibition at 1 µg/mL (RSV B Washington strain) | inhibition at 0.01 µg/mL (RSV A2 strain; HEp-2) | inhibition at 0.1 µg/mL (RSV B Washington strain)
Cc1cnc(N2CC3(CCOCC3)C2)c(C(=O)Nc2ccc(C(=O)N3CCc4cc(C(=O)Nc5c(F)cccc5Cl)sc4-c4ccccc43)cc2)c1 [Example 39, N-(2-chloro-6-fluorophenyl)-6-(4-(5-methyl-2-(7-oxa-2-azaspiro[3.5]nonan-2-yl)nicotinamido)benzoyl)-5,6-dihydro-4H-benzo[b]thieno[2,3-d]azepine-2-carboxamide] | > 13600 nM | 0.057 nM | < 0.014 nM | 100% | 17.3 nM | 77% | – | –
O=C(Nc1c(F)cccc1Cl)c1cc2c(s1)-c1ccccc1N(C(=O)c1ccc(NC(=O)c3cc(C4CC4)cnc3N3CC4(CCOCC4)C3)cc1)CC2 [Example 65, N-(2-chloro-6-fluorophenyl)-6-(4-(5-cyclopropyl-2-(7-oxa-2-azaspiro[3.5]nonan-2-yl)nicotinamido)benzoyl)-5,6-dihydro-4H-benzo[b]thieno[2,3-d]azepine-2-carboxamide] | > 13100 nM | 0.59 nM | 0.13 nM | – | 1.6 nM | 100% | 100% | –
O=C(Nc1c(F)cccc1F)c1cc2c(s1)-c1ccccc1N(C(=O)c1ccc(NC(=O)c3cc4c(nc3N3CC5(CCOCC5)C3)CCC4)cc1)CC2 [Example 75, 6-(4-(2-(7-oxa-2-azaspiro[3.5]nonan-2-yl)-6,7-dihydro-5H-cyclopenta[b]pyridine-3-carboxamido)benzoyl)-N-(2,6-difluorophenyl)-5,6-dihydro-4H-benzo[b]thieno[2,3-d] azepine-2-carboxamide] | > 13400 nM | 0.25 nM | 0.1 nM | – | 2.3 nM | 100% | 84% | –
O=C(Nc1c(F)cccc1Cl)c1cc2c(s1)-c1ccccc1N(C(=O)c1ccc(NC(=O)c3cc4c(nc3N3CC5(CCOCC5)C3)CCC4)cc1)CC2 [Example 76, 6-(4-(2-(7-oxa-2-azaspiro[3.5]nonan-2-yl)-6,7-dihydro-5H-cyclopenta[b]pyridine-3-carboxamido)benzoyl)-N-(2-chloro-6-fluorophenyl)-5,6-dihydro-4H-benzo[b]thieno[2,3-d] azepine-2-carboxamide] | > 13100 nM | 0.32 nM | 0.15 nM | – | 1.4 nM | 100% | 100% | –
O=C(Nc1c(F)cccc1Cl)c1cc2c(s1)-c1ccccc1N(C(=O)c1ccc(NC(=O)c3cc4c(nc3N3CC5(CCOCC5)C3)CCCC4)cc1)CC2 [Example 81, 6-(4-(2-(7-oxa-2-azaspiro[3.5]nonan-2-yl)-5,6,7,8-tetra-hydroquinoline-3-carboxamido)benzoyl)-N-(2-chloro-6-fluorophenyl)-5,6-dihydro-4H-benzo[b]thieno[2,3-d]azepine-2-carboxamide] | > 12900 nM | 0.13 nM | 0.18 nM | – | 10.2 nM | – | 77% | 100%
O=C(Nc1c(F)cccc1Cl)c1cc2c(s1)-c1ccccc1N(C(=O)c1ccc(NC(=O)c3cc4ccccc4nc3N3CC4(CCOCC4)C3)cc1)CC2 [Example 87, 6-(4-(2-(7-oxa-2-azaspiro[3.5]nonan-2-yl)quinoline-3-carboxamido)benzoyl)-N-(2-chloro-6-fluorophenyl)-5,6-di-hydro-4H-benzo[b]thieno[2,3-d]azepine-2-carboxamide] | > 12900 nM | 0.49 nM | 0.54 nM | – | 15.8 nM | – | 94% | 100%

From US10189863B2, “5,6-dihydro-4H-benzo[b]thieno-[2,3-d]azepine derivatives” (PULMOCIDE LIMITED, priority 2014, dated 2019)
